Data from PubChem BioAssay AID1963875 (Molecular Pharmacology Branch, DTP, NCI, 2024).

Test system: KRAS-mutant PDC complex spheroid viability
Assay: Anticancer human tumor 186277-243-T-J2-PDC patient-derived colon adenocarcinoma cell line growth inhibition [KRAS2]
Settings: for IC50: curve of first compound; for viability, T/C: stronger effect = lower value
Excerpt: Multicellular complex tumor spheroid response to RAS pathway inhibitors in combination with a targeted agents in patient-derived cell lines with oncogenic KRAS variants from multiple cancer types
A high-throughput screen of multi-cell type tumor spheroids was designed to identify active combinations of targeted small molecules and KRAS pathway inhibitors. Complex spheroids include a stromal component modeled by human endothelial cells (HUVEC) and fibroblasts modeled by human mesenchymal stem cells (MSCs). The concentration ranges selected for each drug and investigational agent were based upon clinically achievable concentrations if the clinical Cmax of the agent was known.
Compounds. The drugs and investigational agents: BI-3406 (NSC825286), BAY-293 (NSC824723), batoprotafib (TNO155; NSC825523), sotorasib (AMG 510; NSC818433), MRTX1257 (NSC819558), elimusertib (BAY 1895344; NSC800525), molibresib (GSK525762; NSC774829), temuterkib (LY3214996; NSC803410), venetoclax (NSC766270), alisertib (NSC759677), olaparib (NSC753686), talazoparib (NSC767125), erdafitinib (NSC781556), ipatasertib (NSC767898), cabozantinib (NSC761068), nintedanib (NSC756659), abemaciclib (NSC768073), docetaxel (NSC628503), trametinib (NSC758246), and sapanisertib (NSC764658) were obtained from the National Cancer Institute (NCI) Developmental Therapeutics Program Chemical Repository. The FDA-approved anticancer drug set is available from the Developmental Therapeutics Program. […] The stock solutions were prepared in dimethyl sulfoxide (DMSO, Sigma-Aldrich, St. Louis, MO, cat. D2650) at 800-fold the tested concentration and stored at -70 degrees C prior to their use. All drugs and investigational agents were tested over a range starting from a high concentration at or near the clinical Cmax and decreasing in half-log increments. If the clinical Cmax for an agent had not been determined, the highest concentration tested was 10 microM.
Cell Culture. All cells were maintained in an incubator at 37 degrees C and 5% CO2 with 95% humidity. The PDC lines were cultured according to standard operating procedures established by the NCI PDMR (https://pdmr.cancer.gov/sops/default.htm). Briefly, all PDCs were thawed and cultured in Matrigel-coated flasks prepared with a working solution of 1X Ham's F-12 nutrient mix, without supplementation (Invitrogen, Waltham, MA, cat. 11765054), 100 U/mL penicillin-streptomycin (Invitrogen, cat. 15140122), and 2.5% Matrigel (Corning Inc., Corning, NY, cat. 354248) for the first three passages. All PDCs were cultured in complete DMEM/F-12 media containing advanced DMEM/F-12 (Invitrogen, cat. 12634028), 4.9% defined fetal bovine serum, heat inactivated (HyClone Laboratories Inc., Logan, UT, cat. SH30070.03HI), 389 ng/mL hydrocortisone (Sigma-Aldrich, cat. H4001), 9.7 ng/mL human EGF recombinant protein (Invitrogen, cat. PHG0313), 23.4 microg/mL adenine (Sigma-Aldrich, cat. A2786), 97.3 U/mL penicillin-streptomycin (Invitrogen, cat. 15140122), 1.9 mM L-glutamine (Invitrogen, cat. 25030081), and 9.7 microM Y-27632 dihydrochloride (Tocris Bioscience, Bristol, United Kingdom, cat. 1254). The PDCs were cultured in complete DMEM/F12 media without 9.7 microM Y-27632 dihydrochloride for at least two passages prior to the screen. The established cell line HOP-62 was cultured in RPMI 1640 medium, HEPES (Invitrogen, cat. 22400105) with 10% defined fetal bovine serum (HyClone Laboratories Inc., cat. SH30070.03) and 2 mM L-glutamine (Invitrogen, cat. 25030081). The pooled donor HUVEC were cultured in endothelial cell growth medium 2 (PromoCell, Heidelberg, Germany, cat. C-22011) and the hMSC were cultured in mesenchymal stem cell growth medium 2 (PromoCell, cat. C-28009). For all experiments, HUVEC and hMSC were used at passages </=5, while the malignant cell lines were used at passages </=15. […]

[1] = second compound 0.1 µM, first compound 0.0316 µM
[2] = second compound 0.1 µM, first compound 0.1 µM
[3] = second compound 0.316 µM, first compound 0.0316 µM
[4] = second compound 0.316 µM, first compound 0.1 µM
[5] = second compound 1 µM, first compound 0.0316 µM
[6] = second compound 1 µM, first compound 0.1 µM
[7] = second compound 3.16 µM, first compound 0.0316 µM
[8] = second compound 3.16 µM, first compound 0.1 µM
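Wherever viability, T/C is given: viability read after seven days of compound exposure; 100% = DMSO vehicle-treated spheroids so lower means less viable.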

## Cn1ncnc1[C@H]1c2n[nH]c(=O)c3cc(F)cc(c23)N[C@@H]1c1ccc(F)cc1 + C=CC(=O)N1CCN(c2nc(OCC3CCCN3C)nc3c2CCN(c2cccc4cccc(C)c24)C3)CC1CC#N
Second compound 0.0316 µM
  IC50: > 0.1 µM
Second compound 0.1 µM
  IC50: > 0.1 µM
Second compound 0.316 µM
  IC50: > 0.1 µM
Second compound 1 µM
  IC50: > 0.1 µM
Second compound 3.16 µM
  IC50: < 0.000316 µM
Second compound 0.0316 µM, first compound 0.000316 µM
  viability, T/C: 94.5%
Second compound 0.0316 µM, first compound 0.001 µM
  viability, T/C: 109%
Second compound 0.0316 µM, first compound 0.00316 µM
  viability, T/C: 100%
Second compound 0.0316 µM, first compound 0.01 µM
  viability, T/C: 93.8%
Second compound 0.0316 µM, first compound 0.0316 µM
  viability, T/C: 99.2%
Second compound 0.0316 µM, first compound 0.1 µM
  viability, T/C: 79.8%
Second compound 0.1 µM, first compound 0.000316 µM
  viability, T/C: 114%
Second compound 0.1 µM, first compound 0.001 µM
  viability, T/C: 98.5%
Second compound 0.1 µM, first compound 0.00316 µM
  viability, T/C: 110%
Second compound 0.1 µM, first compound 0.01 µM
  viability, T/C: 94.9%
[1]
  viability, T/C: 98.3%
[2]
  viability, T/C: 80.5%
Second compound 0.316 µM, first compound 0.000316 µM
  viability, T/C: 92%
Second compound 0.316 µM, first compound 0.001 µM
  viability, T/C: 109%
Second compound 0.316 µM, first compound 0.00316 µM
  viability, T/C: 106%
Second compound 0.316 µM, first compound 0.01 µM
  viability, T/C: 108%
[3]
  viability, T/C: 90.1%
[4]
  viability, T/C: 79.4%
Second compound 1 µM, first compound 0.000316 µM
  viability, T/C: 103%
Second compound 1 µM, first compound 0.001 µM
  viability, T/C: 95.4%
Second compound 1 µM, first compound 0.00316 µM
  viability, T/C: 105%
Second compound 1 µM, first compound 0.01 µM
  viability, T/C: 84.8%
[5]
  viability, T/C: 70.8%
[6]
  viability, T/C: 63.4%
Second compound 3.16 µM, first compound 0.000316 µM
  viability, T/C: 0.19%
Second compound 3.16 µM, first compound 0.001 µM
  viability, T/C: 0.19%
Second compound 3.16 µM, first compound 0.00316 µM
  viability, T/C: 0.16%
Second compound 3.16 µM, first compound 0.01 µM
  viability, T/C: 0.18%
[7]
  viability, T/C: 0.21%
[8]
  viability, T/C: 0.27%

## O=C(c1cc(Cc2n[nH]c(=O)c3ccccc23)ccc1F)N1CCN(C(=O)C2CC2)CC1 + COc1cc2nc(C)nc(NC(C)c3cc(N)cc(C(F)(F)F)c3)c2cc1OC1CCOC1
Second compound 0.1 µM
  IC50: 8.25 µM
Second compound 0.316 µM
  IC50: 5.9 µM
Second compound 1 µM
  IC50: 8.78 µM
Second compound 3.16 µM
  IC50: 4.49 µM
Second compound 10 µM
  IC50: 0.872 µM
[1]
  viability, T/C: 107%
[2]
  viability, T/C: 105%
Second compound 0.1 µM, first compound 0.316 µM
  viability, T/C: 114%
Second compound 0.1 µM, first compound 1 µM
  viability, T/C: 116%
Second compound 0.1 µM, first compound 3.16 µM
  viability, T/C: 99.1%
Second compound 0.1 µM, first compound 10 µM
  viability, T/C: 40.1%
[3]
  viability, T/C: 105%
[4]
  viability, T/C: 102%
Second compound 0.316 µM, first compound 0.316 µM
  viability, T/C: 107%
Second compound 0.316 µM, first compound 1 µM
  viability, T/C: 116%
Second compound 0.316 µM, first compound 3.16 µM
  viability, T/C: 67.9%
Second compound 0.316 µM, first compound 10 µM
  viability, T/C: 34.8%
[5]
  viability, T/C: 111%
[6]
  viability, T/C: 104%
Second compound 1 µM, first compound 0.316 µM
  viability, T/C: 107%
Second compound 1 µM, first compound 1 µM
  viability, T/C: 122%
Second compound 1 µM, first compound 3.16 µM
  viability, T/C: 88.2%
Second compound 1 µM, first compound 10 µM
  viability, T/C: 45.1%
[7]
  viability, T/C: 109%
[8]
  viability, T/C: 98.3%
Second compound 3.16 µM, first compound 0.316 µM
  viability, T/C: 109%
Second compound 3.16 µM, first compound 1 µM
  viability, T/C: 110%
Second compound 3.16 µM, first compound 3.16 µM
  viability, T/C: 61%
Second compound 3.16 µM, first compound 10 µM
  viability, T/C: 25.1%
Second compound 10 µM, first compound 0.0316 µM
  viability, T/C: 102%
Second compound 10 µM, first compound 0.1 µM
  viability, T/C: 101%
Second compound 10 µM, first compound 0.316 µM
  viability, T/C: 81.3%
Second compound 10 µM, first compound 1 µM
  viability, T/C: 48.4%
Second compound 10 µM, first compound 3.16 µM
  viability, T/C: 11.5%
Second compound 10 µM, first compound 10 µM
  viability, T/C: 10.1%
